Source: patent US10266537B2, “3-acetylenyl-pyrazole-pyrimidine derivative, and preparation method therefor and uses thereof” (Si Chuan University, priority 2015, dated 2019)
pIC50: −log10 of the molar value.

Columns and labels:
MDA-MB-435 = experiment: Cell proliferation inhibition assay (MTT); format: cell-based, human; details: Homo sapiens; MDA-MB-435; MTT, 72 hours; read-out: Proliferative inhibitory activity MDA-MB-435 (IC50 class)
Procedure: The remaining cell lines were cultured in DMEM complete medium containing 10% fetal bovine serum (MV4-11 cells 20%), 100 U/ml penicillin, 100 μg/mL streptomycin at 5% CO2, and 37° C.
The cells were seeded in 96-well plates with 200 μL of cell suspension per well and incubated overnight in a cell culture medium with a cell concentration of 1˜2×10^4 cells/mL. The next day, the supernatant was discarded (the suspension cell was centrifuged before it) and the cells were treated with gradient concentrations of the test compound, respectively. At the same time, the drug-free negative control group and the equal volume of solvent control group, DMSO concentration of 0.1%, each dose group set up three wells, 37° C., 5% CO2 conditions. After 72 hours, add 20 μL of MTT reagent at a concentration of 5 mg/mL per well. After incubation for 2-4 h, the supernatant was discarded and 150 μL of DMSO was added to each well. […] Determine the absorbance (A) value (λ=570 nm, A value is proportional to the number of living cells), whichever is the average. […] The experiment was repeated at least 3 times. Experimental data were expressed as mean, data statistics using t test, P<0.05 for the difference was statistically significant. The inhibitory effects of the following compounds on cell proliferation were expressed as IC50 or inhibition rates.

MDA-MB-231 = experiment: Cell proliferation inhibition assay (MTT); format: cell-based, human; details: Homo sapiens; MDA-MB-231; MTT, 72 hours; read-out: Proliferative inhibitory activity MDA-MB-231 (IC50 class)

Structure (SMILES) | pIC50 (MDA-MB-435) | pIC50 (MDA-MB-231)
Cc1ccc(NC(=O)c2ccc(Cl)c(C(F)(F)F)c2)cc1C#Cc1nn(C2CCN(C)CC2)c2ncnc(N)c12 [Compound 67] | > 7.00 | > 7.00
Cc1ccc(NC(=O)c2cncc(C(F)(F)F)c2)cc1C#Cc1nn(C2CCN(C)CC2)c2ncnc(N)c12 [Compound 58] | > 7.00 | 6.30 to 7.00
Cc1ccc(NC(=O)Nc2cccc(C(F)(F)F)c2)cc1C#Cc1nn(C2CCN(C)CC2)c2ncnc(N)c12 [Compound 35] | > 7.00 | 6.00 to 6.30
Cc1ccc(NC(=O)c2ccc(CN3CCN(C)CC3)cc2)cc1C#Cc1nn(C(C)C)c2ncnc(N)c12 [Compound 1] | 6.30 to 7.00 | 6.30 to 7.00
Cc1ccc(NC(=O)c2ccc(C)c(C#Cc3nn(C(C)C)c4ncnc(N)c34)c2)cc1 [Compound 22] | < 6.00 | 6.30 to 7.00
CCn1nc(C#Cc2cc(C(=O)Nc3cccc(C(F)(F)F)c3)ccc2C)c2c(N)ncnc21 [Compound 119] | 6.30 to 7.00 | 6.30 to 7.00
CCn1nc(C#Cc2cc(C(=O)Nc3ccc(CN4CCN(C)CC4)c(C(F)(F)F)c3)ccc2F)c2c(N)ncnc21 [Compound 23] | 6.30 to 7.00 | < 6.00
Cc1ccc(NC(=O)c2cc(C(C)(C)C)nn2C)cc1C#Cc1nn(C2CCN(C)CC2)c2ncnc(N)c12 [Compound 63] | > 7.00 | 6.30 to 7.00
Cc1ccc(NC(=O)c2cc(F)cc(C(F)(F)F)c2)cc1C#Cc1nn(C2CCN(C)CC2)c2ncnc(N)c12 [Compound 51] | < 6.00 | 6.00 to 6.30
Cc1ccc(NC(=O)c2ccc(Cl)c(C(F)(F)F)c2)cc1C#Cc1nn(C2CCCN(S(C)(=O)=O)C2)c2ncnc(N)c12 (centres unmarked) [Compound 91] | 6.30 to 7.00 | > 7.00
Cc1ccc(NC(=O)c2ccc(CN3CCN(C)CC3)c(C(F)(F)F)c2)cc1C#Cc1nn(C)c2ncnc(N)c12 [Compound 28] | > 7.00 | > 7.00
Cc1ccc(NC(=O)c2ccc(Cl)c(C(F)(F)F)c2)cc1C#Cc1nn(C2CCN(C(=O)[C@H](C)O)CC2)c2ncnc(N)c12 [Compound 70] | 6.00 to 6.30 | > 7.00
Cc1ccc(NC(=O)c2ccc(Cl)c(C(F)(F)F)c2)cc1C#Cc1nn([C@@H]2CCCN(C(=O)[C@@H](C)O)C2)c2ncnc(N)c12 [Compound 88] | 6.30 to 7.00 | > 7.00
Cc1ccc(NC(=O)c2ccc(C)c(C(F)(F)F)c2)cc1C#Cc1nn(C[C@H](C)CO)c2ncnc(N)c12 [Compound 110] | > 7.00 | > 7.00
Cc1ccc(C(=O)Nc2cccc(C(F)(F)F)c2)cc1C#Cc1nn([C@H]2CC[C@H](O)CC2)c2ncnc(N)c12 [Compound 103] | > 7.00 | > 7.00
Cc1ccc(NC(=O)c2ccc(F)c(Cl)c2)cc1C#Cc1nn(C2CCN(C)CC2)c2ncnc(N)c12 [Compound 46] | < 6.00 | 6.00 to 6.30
Cc1ccc(NC(=O)c2ccc(Cl)cc2)cc1C#Cc1nn(C2CCN(C)CC2)c2ncnc(N)c12 [Compound 53] | 6.30 to 7.00 | > 7.00
Cc1ccc(NC(=O)c2nc(C(C)(C)C)cs2)cc1C#Cc1nn(CC2CCN(C)C2)c2ncnc(N)c12 (centres unmarked) [Compound 94] | 6.30 to 7.00 | 6.30 to 7.00
CCn1nc(C#Cc2cc(C(=O)Nc3ccc(CN4CCN(C)CC4)c(C(F)(F)F)c3)ccc2C(C)C)c2c(N)ncnc21 [Compound 27] | < 6.00 | < 6.00
Cc1ccc(NC(=O)c2ccc(Cl)c(C(F)(F)F)c2)cc1C#Cc1nn([C@@H]2CCN(S(C)(=O)=O)C2)c2ncnc(N)c12 [Compound 84] | 6.30 to 7.00 | > 7.00
Cc1ccc(NC(=O)c2ccc(Cl)c(C(F)(F)F)c2)cc1C#Cc1nn(C2CCC2)c2ncnc(N)c12 [Compound 77] | < 6.00 | 6.00 to 6.30
Cc1ccc(NC(=O)c2cccc(C(F)(F)F)c2)cc1C#Cc1nn(C[C@@H](C)CO)c2ncnc(N)c12 [Compound 101] | > 7.00 | > 7.00
Cc1ccc(NC(=O)c2cccc(Cl)c2)cc1C#Cc1nn(C2CCN(C)CC2)c2ncnc(N)c12 [Compound 49] | 6.00 to 6.30 | > 7.00
Cc1ccc(NC(=O)c2cc(Cl)cc(C(F)(F)F)c2)cc1C#Cc1nn(C2CCN(C)CC2)c2ncnc(N)c12 [Compound 66] | > 7.00 | > 7.00
Cc1ccc(NC(=O)c2ccc(C)c(C(F)(F)F)c2)cc1C#Cc1nn(C[C@@H](C)CO)c2ncnc(N)c12 [Compound 99] | 6.30 to 7.00 | > 7.00
CN1CCC(n2nc(C#Cc3cccc(C(=O)Nc4cccc(C(F)(F)F)c4)c3)c3c(N)ncnc32)CC1 [Compound 37] | 6.30 to 7.00 | < 6.00
Cc1ccc(C(=O)Nc2cccc(C(F)(F)F)c2)cc1C#Cc1nn(C[C@H](C)CO)c2ncnc(N)c12 [Compound 106] | > 7.00 | > 7.00
Cc1ccc(NC(=O)c2ccc(Cl)c(C(F)(F)F)c2)cc1C#Cc1nn(C[C@H](C)CO)c2ncnc(N)c12 [Compound 83] | 6.30 to 7.00 | > 7.00
